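Assay format: 96-well plates, 48-hour exposure. GI50 = concentration required for 50% inhibition of growth. Definition used: TGI = concentration required for complete inhibition of growth.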
Experiments:
Experiment in all cases: NCI-60 cell line screen, 48 h
[1] = tested on: UO-31 renal
[2] = tested on: IGROV1 ovarian
[3] = tested on: MALME-3M melanoma
[4] = tested on: HCT-116 colon
[5] = tested on: NCI-H226 lung
[6] = tested on: HS 578T breast
[7] = tested on: HT29 colon
[8] = tested on: NCI/ADR-RES ovarian
[9] = tested on: KM12 colon
[10] = tested on: SK-MEL-2 melanoma
[11] = tested on: ACHN renal
[12] = tested on: OVCAR-8 ovarian
[13] = tested on: PC-3 prostate
[14] = tested on: MCF7 breast
[15] = tested on: U251 CNS
[16] = tested on: SK-MEL-28 melanoma
[17] = tested on: HOP-92 NSCLC
[18] = tested on: MDA-MB-231 breast
[19] = tested on: EKVX NSCLC
[20] = tested on: RXF 393 renal
[21] = tested on: HOP-62 NSCLC
[22] = tested on: A498 renal
[23] = tested on: OVCAR-4 ovarian
[24] = tested on: BT-549 breast
[25] = tested on: SN12C renal
[26] = tested on: 786-0 renal
[27] = tested on: UACC-62 melanoma
[28] = tested on: SK-OV-3 ovarian
[29] = tested on: OVCAR-5 ovarian
[30] = tested on: SNB-75 CNS
[31] = tested on: CAKI-1 renal
[32] = tested on: SNB-19 CNS
[33] = tested on: LOX IMVI melanoma
[34] = tested on: TK-10 renal
[35] = tested on: SF-268 CNS
[36] = tested on: SW-620 colon
[37] = tested on: DU-145 prostate
[38] = tested on: UACC-257 melanoma
[39] = tested on: OVCAR-3 ovarian
[40] = tested on: M14 melanoma
[41] = tested on: HCC-2998 colon
[42] = tested on: NCI-H23 lung
[43] = tested on: HL-60(TB) leukemia
[44] = tested on: MOLT-4 leukemia
[45] = tested on: MDA-MB-435
[46] = tested on: SF-295 CNS
[47] = tested on: A549 NSCLC
[48] = tested on: CCRF-CEM leukemia
[49] = tested on: RPMI-8226 leukemia
[50] = tested on: K-562 leukemia
[51] = tested on: COLO 205 colon
[52] = tested on: T-47D breast
[53] = tested on: HCT-15 colon
[54] = tested on: SF-539 CNS
[55] = tested on: NCI-H460 lung
[56] = tested on: SR leukemia
[57] = tested on: SK-MEL-5 melanoma

COc1ccc(-c2cnoc2-c2ccc(OC)cc2O)cc1
GI50 [1]: 11.6 µM | TGI [1]: 53.3 µM | GI50 [2]: 7.54 µM | TGI [2]: 92.1 µM | GI50 [3]: 14.1 µM | TGI [3]: 49.5 µM | GI50 [4]: 2.82 µM | TGI [4]: 16.5 µM | GI50 [5]: 12.8 µM | TGI [5]: 55.6 µM | GI50 [6]: 1.9 µM | TGI [6]: 6.69 µM | GI50 [7]: 3.54 µM | TGI [7]: 15.3 µM | GI50 [8]: 1.75 µM | TGI [8]: 19.1 µM | GI50 [9]: 2.66 µM | TGI [9]: 15 µM | GI50 [10]: 3.33 µM | TGI [10]: 11.8 µM | GI50 [11]: 9.17 µM | TGI [11]: > 100 µM | GI50 [12]: 4.49 µM | TGI [12]: 30.4 µM | GI50 [13]: 4.52 µM | TGI [13]: 54.3 µM | GI50 [14]: 2.85 µM | TGI [14]: 85.2 µM | GI50 [15]: 3.58 µM | TGI [15]: 18.3 µM | GI50 [16]: 5.42 µM | TGI [16]: 60.5 µM | GI50 [17]: 2.42 µM | TGI [17]: 27.4 µM | GI50 [18]: 3.32 µM | TGI [18]: 27.6 µM | GI50 [19]: 15.5 µM | TGI [19]: > 100 µM | GI50 [20]: 3.4 µM | TGI [20]: 11.1 µM | GI50 [21]: 4.6 µM | TGI [21]: 35.7 µM | GI50 [22]: 1.78 µM | TGI [22]: 8.49 µM | GI50 [23]: 10.5 µM | TGI [23]: > 100 µM | GI50 [24]: 9.73 µM | TGI [24]: 35.3 µM | GI50 [25]: 5 µM | TGI [25]: 41.1 µM | GI50 [26]: 5.31 µM | TGI [26]: 37.5 µM | GI50 [27]: 2.61 µM | TGI [27]: 20.2 µM | GI50 [28]: 4.17 µM | TGI [28]: 24 µM | GI50 [29]: 13.5 µM | TGI [29]: > 100 µM | GI50 [30]: 1.72 µM | TGI [30]: 9.86 µM | GI50 [31]: 4.31 µM | TGI [31]: > 100 µM | GI50 [32]: 5.29 µM | TGI [32]: > 100 µM | GI50 [33]: 6.9 µM | TGI [33]: 26.2 µM | GI50 [34]: 11.8 µM | TGI [34]: 47.5 µM | GI50 [35]: 6.32 µM | TGI [35]: 42.6 µM | GI50 [36]: 2.05 µM | TGI [36]: > 100 µM | GI50 [37]: 3.85 µM | TGI [37]: 15.8 µM | GI50 [38]: 6.9 µM | TGI [38]: 41.6 µM | GI50 [39]: 2.32 µM | TGI [39]: 5.76 µM | GI50 [40]: 2.69 µM | TGI [40]: 15 µM | GI50 [41]: 5.27 µM | TGI [41]: 29.8 µM | GI50 [42]: 4.31 µM | TGI [42]: 50.3 µM | GI50 [43]: 2.93 µM | TGI [43]: 16.8 µM | GI50 [44]: 3.36 µM | TGI [44]: 22.9 µM | GI50 [45]: 0.314 µM | TGI [45]: 1.6 µM | GI50 [46]: 2.99 µM | TGI [46]: 14.8 µM | GI50 [47]: 4.08 µM | TGI [47]: 69.3 µM | GI50 [48]: 3.09 µM | TGI [48]: > 100 µM | GI50 [49]: 4.98 µM | TGI [49]: 67.4 µM | GI50 [50]: 0.534 µM | TGI [50]: > 100 µM | GI50 [51]: 9.5 µM | TGI [51]: 30.4 µM | GI50 [52]: 8.64 µM | TGI [52]: > 100 µM | GI50 [53]: 2.56 µM | TGI [53]: > 100 µM | GI50 [54]: 3.66 µM | TGI [54]: 16.6 µM | GI50 [55]: 3.24 µM | TGI [55]: 12.4 µM | GI50 [56]: 0.628 µM | TGI [56]: 13 µM | GI50 [57]: 3.52 µM | TGI [57]: 14.2 µM

COc1ccc(-c2cc3c(OC)c(OC)c(OC)cc3oc2=O)cc1
GI50 [1]: 5.59 µM | TGI [1]: 48.8 µM | GI50 [2]: 5.81 µM | TGI [2]: > 100 µM | GI50 [3]: 4.37 µM | TGI [3]: > 100 µM | GI50 [4]: 3.97 µM | TGI [4]: 18.6 µM | GI50 [5]: 13.3 µM | TGI [5]: 78.8 µM | GI50 [6]: 2.59 µM | TGI [6]: 7.96 µM | GI50 [7]: 3.42 µM | TGI [7]: 13.1 µM | GI50 [8]: 2.02 µM | TGI [8]: 7.72 µM | GI50 [9]: 1.79 µM | TGI [9]: > 100 µM | GI50 [10]: 3.48 µM | TGI [10]: > 100 µM | GI50 [11]: 7.47 µM | TGI [11]: > 100 µM | GI50 [12]: 5 µM | TGI [12]: > 100 µM | GI50 [13]: 7.42 µM | TGI [13]: > 100 µM | GI50 [14]: 3.69 µM | TGI [14]: > 100 µM | GI50 [15]: 4.27 µM | TGI [15]: > 100 µM | GI50 [16]: 5.28 µM | TGI [16]: > 100 µM | GI50 [17]: 2.61 µM | TGI [17]: 22.4 µM | GI50 [18]: 4.91 µM | TGI [18]: 62.5 µM | GI50 [19]: 8.32 µM | TGI [19]: > 100 µM | GI50 [20]: 5.91 µM | TGI [20]: 63.5 µM | GI50 [21]: 4.68 µM | TGI [21]: > 100 µM | GI50 [22]: 1.7 µM | TGI [22]: 6.98 µM | GI50 [23]: 7.6 µM | TGI [23]: > 100 µM | GI50 [24]: 5.85 µM | TGI [24]: 71.6 µM | GI50 [25]: 5.04 µM | TGI [25]: > 100 µM | GI50 [26]: 6.91 µM | TGI [26]: > 100 µM | GI50 [27]: 3.95 µM | TGI [27]: > 100 µM | GI50 [28]: 4.67 µM | TGI [28]: 82.2 µM | GI50 [29]: 17.8 µM | TGI [29]: > 100 µM | GI50 [30]: 3.39 µM | TGI [30]: 23 µM | GI50 [31]: 4.59 µM | TGI [31]: > 100 µM | GI50 [32]: 5.95 µM | TGI [32]: > 100 µM | GI50 [33]: 5.32 µM | TGI [33]: > 100 µM | GI50 [34]: 5.11 µM | TGI [34]: 65 µM | GI50 [35]: 4.95 µM | TGI [35]: 90.9 µM | GI50 [36]: 2.79 µM | TGI [36]: > 100 µM | GI50 [37]: 4.51 µM | TGI [37]: 59.9 µM | GI50 [38]: 5.47 µM | TGI [38]: > 100 µM | GI50 [39]: 2.68 µM | TGI [39]: 6.45 µM | GI50 [40]: 3.31 µM | TGI [40]: > 100 µM | GI50 [41]: 4.41 µM | TGI [41]: > 100 µM | GI50 [42]: 3.49 µM | TGI [42]: > 100 µM | GI50 [43]: 2.95 µM | TGI [43]: 12.8 µM | GI50 [44]: 3.92 µM | TGI [44]: 22.2 µM | GI50 [45]: 0.444 µM | TGI [45]: 2.37 µM | GI50 [46]: 4.63 µM | TGI [46]: > 100 µM | GI50 [47]: 4.62 µM | TGI [47]: > 100 µM | GI50 [48]: 3.1 µM | TGI [48]: 45.9 µM | GI50 [49]: 2.32 µM | TGI [49]: 17 µM | GI50 [50]: 2.02 µM | TGI [50]: > 100 µM | GI50 [51]: 3.66 µM | TGI [51]: 14.7 µM | GI50 [52]: 5.02 µM | TGI [52]: 92.3 µM | GI50 [53]: 3.43 µM | TGI [53]: > 100 µM | GI50 [54]: 4.09 µM | TGI [54]: 22.9 µM | GI50 [55]: 3.48 µM | TGI [55]: 17 µM | GI50 [56]: 1.11 µM | TGI [56]: 12.7 µM | GI50 [57]: 2.57 µM | TGI [57]: 8.51 µM

Reference: PubChem BioAssay (NCI)
